Experimental data reported in article PMC10425210 (The Journal of Clinical Investigation, 2023).
Like-named read-outs stand apart in the source and are kept apart here.

Experiment: Plasma pharmacokinetics after a single subcutaneous administration of LEN
Type: in vivo, rhesus macaques
Settings: male, rhesus monkey, plasma; for concentration at 9 week: week 9 post dose; for concentration at 10 week: week 10 post dose; for concentration at 11 week: week 11 post dose; for concentration at 12 week: week 12 post dose; for concentration at 13 week: week 13 post dose; for concentration at 14 week: week 14 post dose; for concentration at 15 week: week 15 post dose; for concentration at 16 week: week 16 post dose; for concentration at 17 weeks post challenge: week 17 post challenge; for concentration at 18 weeks post challenge: week 18 post challenge; for concentration at 0 weeks post challenge: week 0 post challenge; for concentration at 1 weeks post challenge: week 1 post challenge; for concentration at 2 weeks post challenge: week 2 post challenge; for concentration at 3 weeks post challenge: week 3 post challenge; for concentration at 4 weeks post challenge: week 4 post challenge; for concentration at 5 weeks post challenge: week 5 post challenge; for concentration at 6 weeks post challenge: week 6 post challenge; for concentration at 7 weeks post challenge: week 7 post challenge; for concentration at 0.14 week / concentration at 0.43 week / concentration at 1 week / concentration at 2 week / concentration at 17 week / concentration at 18 week / concentration at 19 week / concentration at 20 week / concentration at 21 week / concentration at 22 week / concentration at 23 week / concentration at 24 week / concentration at 25 week: Indian-origin, outbred; for concentration at 0.14 week: week 0.14 post dose; for concentration at 0.43 week: week 0.43 post dose; for concentration at 1 week: week 1 post dose; for concentration at 2 week: week 2 post dose; for concentration at 17 week: week 17 post dose; for concentration at 18 week: week 18 post dose; for concentration at 19 week: week 19 post dose; for concentration at 20 week: week 20 post dose; for concentration at 21 week: week 21 post dose; for concentration at 22 week: week 22 post dose; for concentration at 23 week: week 23 post dose; for concentration at 24 week: week 24 post dose; for concentration at 25 week: week 25 post dose; for half-life: sc; for concentration at 3 weeks: week 3 post dose; for concentration at 4 weeks: week 4 post dose; for concentration at 5 weeks: week 5 post dose; for concentration at 6 weeks: week 6 post dose
Description: All animals were housed at Bioqual Inc. For the in vivo SHIV stock titration study, 8 untreated outbred Indian-origin male rhesus macaques aged 3–5 years were challenged intrarectally per round for a total of 5 challenge rounds using increasing virus doses ranging from 0.625 to 100 TCID50, with the 100 TCID50 round performed twice for increased resolution (Supplemental Table 2). Plasma viral load was measured to confirm the infection status. […] Injection sites were monitored daily by veterinary staff for 2 weeks and then weekly through the end of study. On week 7, 11 animals were challenged by the intrarectal route with 1 mL RPMI containing 100 TCID50 SHIV-SF162P3. Whole blood was collected and processed into plasma and PBMCs as necessary for the assessment of routine hematology and clinical chemistry, viral load analysis, serology, and the bioanalysis of drug levels. Animals were considered protected if they remained SHIV negative by a plasma PCR assay and seronegative by enzyme immunoassay through week 10 after challenge.
Rhesus plasma samples were stored frozen at –80°C and thawed, and a 50 μL aliquot of each was treated with 200 μL acetonitrile containing an internal standard. After precipitation of the protein component, a 100 μL aliquot of the supernatant was transferred to a clean 96-well plate and mixed with 200 μL water. A 10 μL aliquot of the above solution was then injected into a Q-Exactive high resolution mass spectrometer from Thermo Electron with electrospray ionization in positive mode.

[1] = Indian-origin (outbred), subcutaneous, 50 mg/kg, Plasma LEN (Mean), 50 mg/kg sc
[2] = Indian-origin (outbred), subcutaneous, 50 mg/kg, Plasma LEN, animal CO92, 50 mg/kg
[3] = Indian-origin (outbred), subcutaneous, 50 mg/kg, Plasma LEN, animal V411, 50 mg/kg
[4] = Indian-origin (outbred), subcutaneous, 50 mg/kg, Plasma LEN, animal V430, 50 mg/kg
[5] = Indian-origin (outbred), subcutaneous, 50 mg/kg, Plasma LEN, animal V470, 50 mg/kg
[6] = Indian-origin (outbred), subcutaneous, 75 mg/kg, Plasma LEN (Mean), 75 mg/kg sc
[7] = Indian-origin (outbred), subcutaneous, 75 mg/kg, Plasma LEN, animal CP67, 75 mg/kg
[8] = Indian-origin (outbred), subcutaneous, 75 mg/kg, Plasma LEN, animal V417, 75 mg/kg
[9] = Indian-origin (outbred), subcutaneous, 75 mg/kg, Plasma LEN, animal V426, 75 mg/kg
[10] = Indian-origin (outbred), subcutaneous, 75 mg/kg, Plasma LEN, animal V435, 75 mg/kg
[11] = subcutaneous, 5 mg/kg, Plasma LEN (Mean), 5 mg/kg sc
[12] = subcutaneous, 10 mg/kg, Plasma LEN (Mean), 10 mg/kg sc
[13] = subcutaneous, 20 mg/kg, Plasma LEN (Mean), 20 mg/kg sc
[14] = subcutaneous, 50 mg/kg, Plasma LEN (Mean), 50 mg/kg sc
[15] = subcutaneous, 75 mg/kg, Plasma LEN (Mean), 75 mg/kg sc
[16] = outbred Indian-origin, subcutaneous, 5 mg/kg, Plasma LEN (Mean), 5 mg/kg sc
[17] = outbred Indian-origin, subcutaneous, 10 mg/kg, Plasma LEN (Mean), 10 mg/kg sc
[18] = outbred Indian-origin, subcutaneous, 20 mg/kg, Plasma LEN (Mean), 20 mg/kg sc
[19] = outbred Indian-origin, subcutaneous, 50 mg/kg, Plasma LEN (Mean), 50 mg/kg sc
[20] = outbred Indian-origin, subcutaneous, 75 mg/kg, Plasma LEN (Mean), 75 mg/kg sc
[21] = outbred Indian-origin, 50 mg/kg sc, mean ± SD

In the case of CC(C)(C#Cc1ccc(-c2ccc(Cl)c3c(NS(C)(=O)=O)nn(CC(F)(F)F)c23)c([C@H](Cc2cc(F)cc(F)c2)NC(=O)Cn2nc(C(F)(F)F)c3c2C(F)(F)[C@@H]2C[C@H]32)n1)S(C)(=O)=O [LEN, Lenacapavir], the concentration at 9 week [1] is reported as 51.7 nM, the concentration at 10 week [1] is reported as 48.7 nM and the concentration at 11 week [1] is reported as 45.5 nM. The concentration at 12 week [1] was 37.9 nM, the concentration at 13 week [1] was 37.9 nM and the concentration at 14 week [1] was 21 nM. For the same compound, the concentration at 15 week [1] was 18.4 nM, the concentration at 16 week [1] was 22.2 nM and the concentration at 17 weeks post challenge [2] was 13.6 nM. The concentration at 18 weeks post challenge [2] was 13.1 nM, the concentration at 17 weeks post challenge [3] was 2.22 nM and the concentration at 18 weeks post challenge [3] was 2 nM. The concentration at 16 weeks post challenge (Indian-origin (outbred), subcutaneous, 50 mg/kg, Plasma LEN, animal V430, 50 mg/kg, week 16 post challenge) was 1.24 nM, the concentration at 17 weeks post challenge [4] was 1 nM and the concentration at 18 weeks post challenge [4] was 1 nM. The concentration at 17 weeks post challenge [5] was 8.55 nM, the concentration at 18 weeks post challenge [5] was 10.5 nM and the concentration at 8 week (Indian-origin (outbred), subcutaneous, 75 mg/kg, Plasma LEN (Mean), 75 mg/kg sc, week 8 post dose) was 55 nM. The concentration at 9 week [6] was 72.6 nM, the concentration at 10 week [6] was 98 nM and the concentration at 11 week [6] was 71.3 nM. It also gave a concentration at 12 week [6] of 53.5 nM, a concentration at 13 week [6] of 73.8 nM and a concentration at 14 week [6] of 37.9 nM. The concentration at 15 week [6] was 24.6 nM, the concentration at 16 week [6] was 30.9 nM and the concentration at 0 weeks post challenge [7] was 154 nM. The concentration at 1 weeks post challenge [7] was 95.4 nM, the concentration at 2 weeks post challenge [7] was 136 nM and the concentration at 3 weeks post challenge [7] was 144 nM. For the same compound, the concentration at 4 weeks post challenge [7] was 88.1 nM, the concentration at 5 weeks post challenge [7] was 87.8 nM and the concentration at 6 weeks post challenge [7] was 97.6 nM. For the same compound, the concentration at 7 weeks post challenge [7] was 46.5 nM, the concentration at 0 weeks post challenge [8] was 158 nM and the concentration at 1 weeks post challenge [8] was 43.9 nM. The concentration at 2 weeks post challenge [8] was 52.5 nM, the concentration at 3 weeks post challenge [8] was 88.5 nM and the concentration at 4 weeks post challenge [8] was 69 nM. For the same compound, the concentration at 5 weeks post challenge [8] was 48.8 nM, the concentration at 6 weeks post challenge [8] was 57.3 nM and the concentration at 7 weeks post challenge [8] was 43.9 nM. It also gave a concentration at 0 weeks post challenge [9] of 178 nM, a concentration at 1 weeks post challenge [9] of 68 nM and a concentration at 2 weeks post challenge [9] of 89.7 nM. The concentration at 3 weeks post challenge [9] was 144 nM, the concentration at 4 weeks post challenge [9] was 117 nM and the concentration at 5 weeks post challenge [9] was 68.2 nM. For the same compound, the concentration at 6 weeks post challenge [9] was 132 nM, the concentration at 7 weeks post challenge [9] was 57.4 nM and the concentration at 0 weeks post challenge [10] was 28.2 nM. The concentration at 1 weeks post challenge [10] was 12.5 nM, the concentration at 2 weeks post challenge [10] was 12.4 nM and the concentration at 3 weeks post challenge [10] was 14.8 nM. It also gave a concentration at 4 weeks post challenge [10] of 11.2 nM, a concentration at 5 weeks post challenge [10] of 9.22 nM and a concentration at 6 weeks post challenge [10] of 8.59 nM. For the same compound, the concentration at 0.14 week [11] was 9.76 nM, the concentration at 0.43 week [11] was 5.72 nM and the concentration at 1 week [11] was 2.82 nM. The concentration at 2 week [11] was 2.96 nM, the concentration at 0.14 week [12] was 19.9 nM and the concentration at 0.43 week [12] was 13.4 nM. It also gave a concentration at 1 week [12] of 6.88 nM, a concentration at 2 week [12] of 8.58 nM and a concentration at 0.14 week [13] of 41.3 nM. For the same compound, the concentration at 0.43 week [13] was 17.8 nM, the concentration at 1 week [13] was 9.23 nM and the concentration at 2 week [13] was 16.6 nM. The concentration at 0.14 week [14] was 196 nM, the concentration at 0.43 week [14] was 79 nM and the concentration at 1 week [14] was 56.5 nM. For the same compound, the concentration at 2 week [14] was 87.1 nM, the concentration at 17 week [14] was 22.1 nM and the concentration at 18 week [14] was 17 nM. It also gave a concentration at 19 week [14] of 11.1 nM, a concentration at 20 week [14] of 8.52 nM and a concentration at 21 week [14] of 6.49 nM. It also gave a concentration at 22 week [14] of 7.23 nM, a concentration at 23 week [14] of 5.76 nM and a concentration at 24 week [14] of 6.32 nM. It also gave a concentration at 25 week [14] of 6.61 nM, a concentration at 0.14 week [15] of 498 nM and a concentration at 0.43 week [15] of 223 nM. The concentration at 1 week [15] was 162 nM, the concentration at 2 week [15] was 213 nM and the concentration at 17 week [15] was 24.5 nM. The concentration at 18 week [15] was 20.9 nM, the concentration at 19 week [15] was 16.2 nM and the concentration at 20 week [15] was 16.6 nM. For the same compound, the concentration at 21 week [15] was 12.3 nM, the concentration at 22 week [15] was 9.35 nM and the concentration at 23 week [15] was 10.3 nM. For the same compound, the concentration at 24 week [15] was 11.8 nM, the concentration at 25 week [15] was 11.6 nM and the half-life (outbred Indian-origin, 5-75 mg/kg sc, read-out: plasma drug half-life) was 14 to 56 days. The half-life (outbred Indian-origin, single sc dosing, range over 5-75 mg/kg groups, read-out: half-life) was 17 to 53 days, the concentration at 3 weeks [16] was 4.23 nM and the concentration at 4 weeks [16] was 4.14 nM. It also gave a concentration at 5 weeks [16] of 6 nM, a concentration at 6 weeks [16] of 4.42 nM and a concentration at 7 weeks (outbred Indian-origin, subcutaneous, 5 mg/kg, Plasma LEN (Mean), 5 mg/kg sc, week 7 post dose) of 5.29 nM. The concentration at 3 weeks [17] was 11.3 nM, the concentration at 4 weeks [17] was 10.2 nM and the concentration at 5 weeks [17] was 12.8 nM. For the same compound, the concentration at 6 weeks [17] was 7.32 nM, the concentration at 7 weeks (outbred Indian-origin, subcutaneous, 10 mg/kg, Plasma LEN (Mean), 10 mg/kg sc, week 7 post dose) was 10.1 nM and the concentration at 3 weeks [18] was 21.2 nM. For the same compound, the concentration at 4 weeks [18] was 23.9 nM, the concentration at 5 weeks [18] was 30.1 nM and the concentration at 6 weeks [18] was 26.8 nM. For the same compound, the concentration at 7 weeks (outbred Indian-origin, subcutaneous, 20 mg/kg, Plasma LEN (Mean), 20 mg/kg sc, week 7 post dose) was 27.4 nM, the concentration at 3 weeks [19] was 92.4 nM and the concentration at 4 weeks [19] was 85.3 nM. It also gave a concentration at 5 weeks [19] of 80.6 nM, a concentration at 6 weeks [19] of 71.9 nM and a concentration at 7 weeks (outbred Indian-origin, subcutaneous, 50 mg/kg, Plasma LEN (Mean), 50 mg/kg sc, week 7 post dose) of 103 nM. For the same compound, the concentration at 3 weeks [20] was 126 nM, the concentration at 4 weeks [20] was 95.8 nM and the concentration at 5 weeks [20] was 89.9 nM. It also gave a concentration at 6 weeks [20] of 65.1 nM, a concentration at 7 weeks (outbred Indian-origin, subcutaneous, 75 mg/kg, Plasma LEN (Mean), 75 mg/kg sc, week 7 post dose) of 129 nM and a concentration at 7 weeks (outbred Indian-origin, subcutaneous, LEN exposures at the time of challenge, 11 challenged animals, week 7 postdose) of 18 to 177 nM. The AUC(0-t) (outbred Indian-origin, 5 mg/kg sc, mean ± SD) was 9.3 ± 1.9 µM·h, the AUC(0-inf) [21] was 243 ± 70 µM·h and the AUC(0-t) [21] was 179 ± 23 µM·h. It also gave a Cmax [21] of 200 ± 74 nM.
